Measurements reported in article PMC9571290, “Preliminary Structure–Activity Relationship Study of the MMV Pathogen Box Compound MMV675968 (2,4-Diaminoquinazoline) Unveils Novel Inhibitors of Trypanosoma brucei brucei” (Molecules, 2022).
Where two headings read alike, the source gives them in different places.

Tests used:
[1] = test system: bloodstream forms of Trypanosoma brucei brucei; test: resazurin-based antitrypanosomal inhibition assay; type: cell-based; conditions: Trypanosoma brucei
in vitro = conditions: African green monkey
[2] = test system: trypanosome plasma membrane; test: plasma membrane integrity (SYBR Green); type: cell-based, Trypanosoma brucei brucei; conditions: IC99, IC90, IC50, IC10; up to 120 min
Protocol: The plasma membrane is the first barrier protecting the cell from the external environment and therefore might represent an important challenge for compounds to exert their inhibitory action. Thus, compounds 7 and 10 were assessed for their ability to induce alterations in cell integrity as previously described with a modification consisting of using an SYBR green assay. The principle of this assay is based on the fact that upon treatment with membrane disruptors, trypanosomes with compromised plasma become fluorescent as a result of SYBR green entry and fixation to the exposed DNA. Practically, in a 96-well microtiter plate, 90 µL of trypanosome suspension (2 × 10^6 cells/mL/well) was preincubated with SYBR Green (2X) (Sigma Aldrich) for 15 min at 37 °C and 5% CO2 in darkness. […] The plate was then incubated at 37 °C on a Magelan Infinite M200 multiwell plate reader (Tecan), and fluorescence was further recorded every 5 min for up to 120 min at λex = 485 and λem = 538 nm. […] The results are expressed as the mean ± SD of two experiments carried out in duplicate after deducting the background signal (wells containing HMI-9 medium) and then used to plot the fluorescence counts versus time (min) graph.

trypanosomes = test: intracellular ROS production (DCFDA); type: cell-based, Trypanosoma brucei brucei; conditions: 120 min; versus untreated parasites
Protocol: The production of ROS was detected using a 2′,7′–dichlorofluorescein diacetate (DCFDA) probe (Sigma–Aldrich) as described by Rea et al.. […] DCFDA (100 µL, 5 µM) was then added to the parasites, and incubation was pursued for 15 min at 37 °C. Hydrogen peroxide (H2O2 0.1% v/v) was used as a positive control for maximal ROS production, and wells with untreated parasites were included as a negative control. Of note, DCFDA is cleaved by ROS to produce fluorescent 2′,7′-dichlorofluorescein (DCF), of which the fluorescence intensity was measured at λex = 485 nm and λem = 520 nm. Data obtained from duplicate readouts were used to determine the ROS production percentage relative to the positive control (100% Production). % ROS production = (OD Test/OD control(H2O2)) × 100

[3] = test system: bloodstream forms of Trypanosoma brucei brucei; test: cellular DNA fragmentation ELISA (apoptosis or cytolysis); type: cell-based; conditions: 4 h; for apoptotic DNA fragmentation: lysate, at IC50
Protocol: Basically, this assay tends to quantify apoptotic cell death by detection of […] dye-labeled DNA fragments in the cytoplasm of affected cells or to measure cell-mediated cytotoxicity by detection of dye-labeled DNA fragments released from damaged cells into the culture supernatant. […] BrdU-labeled parasites were harvested (by spinning at 2500 rpm for 7 min) followed by centrifugal washing using BrdU-free HMI-9 medium. […] The plate was then centrifuged at […] for 7 min, and the pellets were collected and kept at 4 °C until further use. For cytolysis measurement, the supernatants were added to a microplate coated with anti-DNA antibody to allow DNA capture from the test samples. The captured DNA fragments were subsequently denatured using microwave irradiation (LG NeoChef Charcoal Healthy Ovens) at 500 W for 5 min to separate DNA strands in view of displaying the BrdU. Thereafter, an anti-BrdU-antibody-POD (peroxidase) conjugate was added to detect the BrdU contained in the captured DNA fragments.
For apoptosis measurement, the cell pellets from each well were resuspended in 200 µL of the kit’s incubation buffer and incubated for 30 min. The lysed cells were centrifuged at […] for 10 min, and the supernatants were used as described above. Triton X-100 (Sigma Aldrich) was used as a positive control for both apoptosis and cell-mediated cytotoxicity. The absorbance values were proportionally correlated to the amount of DNA fragments in the treated cultures. Data are expressed as the mean ± SD of two independent experiments performed in duplicate and compared to the negative control (untreated parasites) at a significance level of p < 0.05.

[4] = Table 4, analogs of MMV675968, solid material, read-out: IC50 ± SD T. b. b.
[5] = Table 4, negative log of IC50 in molar, read-out: pIC50 T. b. b. (converted)

SMILES | IC50 [1, 4] [µM] | IC50 [1, 5] [µM] | CC50 at 48 h (in vitro) [µM] | effect on plasma membrane permeability [2] | change in ROS production (trypanosomes) | induction of cell lysis (cytolysis) ([3]; culture supernatant) | apoptotic DNA fragmentation [3]
COc1ccccc1NCc1ccc2nc(N)nc(N)c2c1 [Analog 7, 6-(((2-methoxyphenyl)amino)methyl)quinazoline-2,4-diamine] | 0.06 ± 0.008 | 0.0603 | 24.8 ± 0.87 | no impairment or a rather mild effect | no significant change | did not exert any effect | did not exert any effect
Nc1nc(N)c2cc(CNc3cc(Cl)ccc3Cl)ccc2n1 [Analog 10, 6-(((2,5-dichlorophenyl)amino)methyl)quinazoline-2,4-diamine] | 0.045 ± 0.005 | 0.0457 | 78.2 ± 0.8 | no impairment or a rather mild effect | no significant change | – | significant inducing effect
